How the values were obtained:
[1] = test system: eggs of Spodoptera littoralis; test: Ovicidal activity, sprayed eggs (Test 1 (c)), toxicity vs parathion; type: in vivo, Egyptian cotton leafworm (Spodoptera littoralis); conditions: eggs less than 24 hours old; approximately five days; 50% mortality basis; standard parathion = 100
Experimental: (§1) The insecticidal and ovicidal activities of the compounds of the invention were assessed employing the pests, Egyptian cotton leafworm (Spodoptera littoralis, S.l.), mosquito (Aedes aegypti, A.a.) and eggs of Spodoptera littoralis, S.l.ov.
(§2) The test methods used for each species are described below. In each case the tests were conducted under normal insectary conditions (28° C.[…]; fluctuating light and humidity).
(§3) In each instance, the toxicity of the compound of the invention was compared to that of a standard pesticide (parathion), its relative toxicity then being expressed in terms of the relationship between the amount of compound of the invention and the amount of the standard pesticide required to produce the same percentage (50%) of mortality in the test insect. By assigning the standard pesticide an arbitrary rating of 100, the toxicities of the compounds of the invention were expressed in terms of the toxicity indices, which compares the toxicity of the compounds of the invention with that of the standard pesticide. That is to say, a test compound having a Toxicity Index of 50 would be half as active, while one having a Toxicity Index of 200 would be twice as active as the standard pesticide.
(c) Spodoptera littoralis (ovicide)--Solutions as described in (a) above were prepared. Eggs less than 24 hours old were obtained as follows. Adult Spodoptera littoralis were held in large plastic cylinders containing blotting paper on which the moths laid their batches of eggs. Egg batches containing approximately 60-70 eggs were cut from the blotting paper with a 1 cm surround. These were placed, eggs uppermost, on filter paper in the deeper half of 5 cm disposable petri dishes and each batch of eggs was then sprayed with a different test solution or the control solution. The dishes were covered until the control eggs had hatched, approximately five days. The percentage ovicidal mortality was then calculated.

[2] = test system: Spodoptera littoralis larvae; test: Insecticidal activity, sprayed diet (Test 1 (a)), toxicity vs parathion; type: in vivo, Egyptian cotton leafworm (Spodoptera littoralis); conditions: second instar larvae; mortality 7 days after spraying; 50% mortality basis; standard parathion = 100
Experimental: as §1, §2
as §3, with “pesticide.” for “pesticide. That is to say, a test compound having a Toxicity Index of 50 would be half as active, while one having a Toxicity Index of 200 would be twice as active as the standard pesticide.”
(a) Spodoptera littoralis--A solution or suspension of the test compound was made up over a range of concentrations in 10% acetone/water containing 0.025% Triton X100 (as surfactant). These solutions were sprayed using a logarithmic spraying machine onto petri dishes containing a nutritious diet on which the Spodoptera littoralis larvae had been reared. When the spray deposit had dried each dish was infested with 10 second instar larvae. Mortality assessments were made 7 days after spraying.

[3] = test system: Aedes aegypti larvae; test: Insecticidal activity, larvae in treated water (Test 1 (b)), toxicity vs parathion; type: in vivo, mosquito (Aedes aegypti); set-up: key: Toxicity Index: parathion = 100; 200 = twice as active, 50 = half; conditions: early fourth instar larvae; final mortality when all larvae emerged as adults or died; 50% mortality basis; standard parathion = 100
Experimental: as §1, §2, §3
(b) Aedes aegypti--Several solutions of the test compound of varying concentration were prepared in acetone. 100 microliter quantities were added to 100 milliliters of tap water, the acetone being allowed to evaporate off. Ten early fourth instar larvae were placed in the test solution; after 48 hours the (surviving) larvae were fed with animal feed pellets, and the final percentage mortality assessed when all the larvae had either pupated and emerged as adults or died.

| Compound | Toxicity Index S.l.ov. [1] | Toxicity Index S.l. [2] | Toxicity Index A.a. [3] |
| --- | --- | --- | --- |
| O=C(NC(=O)N(Sc1ccc([N+](=O)[O-])cc1[N+](=O)[O-])c1ccc(OC(F)(F)F)cc1)c1ccccc1Cl [Example 2, 2-Chloro-N-[[[4-(trifluoromethoxy)phenyl]-N-[(2,4-dinitrophenyl)thio]amino]carbonyl]benzamide] | 3300 | 150 | 82 |
| Cc1ccccc1SN(C(=O)NC(=O)c1ccccc1Cl)c1ccc(OC(F)(F)F)cc1 [Example 4, 2-Chloro-N-[[[4-(trifluoromethoxy)phenyl]-N-[(2-methylphenyl)thio]amino]carbonyl]benzamide] | 2200 | 110 | 77 |
| O=C(NC(=O)N(Sc1ccccc1[N+](=O)[O-])c1ccc(Cl)cc1)c1c(F)cccc1F [Example 5, N-[[[4-Chlorophenyl]-N-[(2-nitrophenyl)thio]amino]carbonyl]-2,6-difluorobenzamide] | 0-4 | 90 | 220 |
| O=C(NC(=O)N(SC(Cl)(Cl)Cl)c1ccc(C(F)(F)F)cc1)c1c(F)cccc1F [Example 6, 2,6-Difluoro-N-[[[(trichloromethyl)thio]-N-[4-(trifluoromethyl)phenyl]amino]carbonyl]benzamide] | 400 | 260 | 34 |
| O=C(NC(=O)N(SC(Cl)(Cl)Cl)c1ccc(Oc2ccc(C(F)(F)F)cc2Cl)cc1)c1ccccc1Cl [Example 7, 2-Chloro-N-[[[4-[2-chloro-4-(trifluoromethyl)phenoxy]phenyl]-N-[(trichloromethyl)thio]amino]carbonyl]benzamide] | 0 | 1800 | 55 |
| O=C(NC(=O)N(Sc1ccccc1)c1ccc(Cl)cc1)c1c(F)cccc1F [Example 8] | 480 | 16 | 22 |
| Cc1ccccc1SN(C(=O)NC(=O)c1c(F)cccc1F)c1ccc(Cl)cc1 [Example 9] | 1400 | 43 | 31 |
| Cc1cccc(SN(C(=O)NC(=O)c2c(F)cccc2F)c2ccc(Cl)cc2)c1 [Example 10] | 1400 | 20 | 24 |
| Cc1ccc(SN(C(=O)NC(=O)c2c(F)cccc2F)c2ccc(Cl)cc2)cc1 [Example 11] | 680 | 23 | 25 |
| O=C(NC(=O)N(Sc1ccc(Cl)cc1)c1ccc(Cl)cc1)c1c(F)cccc1F [Example 12] | – | 17 | 14 |
| O=C(NC(=O)N(Sc1ccc([N+](=O)[O-])cc1[N+](=O)[O-])c1ccc(Cl)cc1)c1c(F)cccc1F [Example 13] | 1800 | 35 | 100 |
| O=C(NC(=O)N(SC(Cl)(Cl)Cl)c1ccc(Cl)cc1)c1c(F)cccc1F [Example 14] | 560 | 10 | 6 |
| O=C(NC(=O)N(Sc1ccccc1)c1ccc(C(F)(F)F)cc1)c1c(F)cccc1F [Example 15] | 1800 | 170 | 50 |
| Cc1ccccc1SN(C(=O)NC(=O)c1c(F)cccc1F)c1ccc(C(F)(F)F)cc1 [Example 16] | 2700 | 550 | – |
| Cc1cccc(SN(C(=O)NC(=O)c2c(F)cccc2F)c2ccc(C(F)(F)F)cc2)c1 [Example 17] | 2800 | 260 | 160 |
| Cc1ccc(SN(C(=O)NC(=O)c2c(F)cccc2F)c2ccc(C(F)(F)F)cc2)cc1 [Example 18] | 2300 | 300 | 170 |
| O=C(NC(=O)N(Sc1ccc([N+](=O)[O-])cc1)c1ccc(C(F)(F)F)cc1)c1c(F)cccc1F [Example 21] | – | 96 | 13 |

— US4497822A, “Insecticidal N-benzoyl-N'-phenyl-N'-(R-thio)ureas” (Shell Oil Company, priority 1982, dated 1985)
